Measurements taken from PMC11590026, “Synthesis, enzyme inhibition, and docking studies of new schiff bases of disalicylic acid methylene-based derivatives as dual-target antibacterial agents” (Frontiers in Chemistry, 2024).
≈ marks a conversion by molar mass, not a printed value. Like-named read-outs stand apart in the source and are kept apart here.

How the values were obtained:
[1] = molecular target: S. aureus topoisomerase IV; conditions: internal standard value stated in the supplementary method; cited from earlier work
E. coli [2] = assay: MIC/MBC assay, twofold serial dilution; type: cell-based, Escherichia coli
Description: (§1) The results of this in vitro assay test are consistent with the findings of the antimicrobial sensitivity test. […] It has lower antimicrobial activity than ciprofloxacin against all pathogens tested.
(§2) The MBC differs from the MIC. […]
(§3) 4.2.2. Minimum inhibitory concentration assay
(§4) In 96-well microtiter plates and […] of fresh bacterial culture of a single McFarland unit overnight, a double serial dilution of each compound […] in sterile standard saline were prepared to every single source well. Ciprofloxacin antibiotic (5 mg / mL - 1) and normal saline were included as standard reference in each assay. The plates were incubated at 37 0C overnight. As an indicator of bacterial growth, […] of p-iodonitrotetrazolium violet (INT) was added to each well and incubated at 37 0C for 30 […]
(§5) min. MIC values are recorded as the lowest concentration of the extract that completely inhibited bacterial growth that is clear well. The colorless tetrazolidium salt acts as an electron accepter and is reduced to a red colored formazan product by biological activity organisms. Where bacterial growth was inhibited, the solution in the well remained clear after incubation with INT. […]

A. flavus [3] = assay: Modified disk diffusion, inhibition zone; type: cell-based, Aspergillus flavus
Description: (§6) The antimicrobial effects of the currently synthesized Schiff bases (6a-l) were tested against two Gram-positive bacteria (S. aureus and B. subtilis), two Gram-negative bacteria (E. coli and P. aeruginosa), and two strains of fungus (A. flavus and C. albicans). The modified disk diffusion method ([Alkhaldi et al., 2019]; [Manso et al., 2021]) was used to determine the inhibition zones (IZ, mm/mL) and the minimal inhibitory concentration (MIC, nM). Ciprofloxacin and Fluconazole was used as positive controls. Tables 1–3 display the findings. […]
(§7) incubated at 35-37 °C for 24-48 hours and yeast as Candida albicans (ATCC 7102) incubated at 30 °C for 24-48 hours and, then the diameters of the inhibition zones were measured in millimeters. Standard discs of ciprofloxacin (Antibacterial agent), Fluconazole (Antifungal agent) served as positive controls for antimicrobial activity but filter discs impregnated with 10 µl of solvent (distilled water, chloroform, DMSO) were used as a negative control. Blank paper disks (Schleicher & Schuell, Spain) with a diameter of 8.0 mm were impregnated 10µ of tested concentration of the stock solutions. When a filter paper disc impregnated with a tested chemical is placed on agar the chemical will diffuse from the disc into the agar. This diffusion will place the chemical in the agar only around the disc. […]

[4] = test system: Gram-positive and Gram-negative bacteria; assay: Disk diffusion inhibition zone, all bacterial pathogens tested; type: cell-based
Description: (§8) The antimicrobial effects of the currently synthesized Schiff bases (6a-l) were tested against two Gram-positive bacteria (S. aureus and B. subtilis), two Gram-negative bacteria (E. coli and P. aeruginosa), and two strains of fungus (A. flavus and C. albicans). The modified disk diffusion method ([Alkhaldi et al., 2019]; [Manso et al., 2021]) was used to determine the inhibition zones (IZ, mm/mL) and the minimal inhibitory concentration (MIC, nM). Ciprofloxacin and Fluconazole was used as positive controls. Tables 1–3 display the findings.

B. subtilis [5] = assay: MIC/MBC assay, twofold serial dilution; type: cell-based, Bacillus subtilis
Description: as §1, §2, §3, §4, §5

C. albicans [6] = assay: Modified disk diffusion, inhibition zone; type: cell-based, Candida albicans
Description: as §6, §7

P. aeruginosa [7] = assay: MIC/MBC assay, twofold serial dilution; type: cell-based, Pseudomonas aeruginosa
Description: as §1, §2, §3, §4, §5

S. aureus [8] = assay: MIC/MBC assay, twofold serial dilution; type: cell-based, Staphylococcus aureus
Description: as §1, §2, §3, §4, §5

B. subtilis [9] = test system: B. subtilis; set-up: method as in Al-Wahaibi et al., 2024; conditions: ref Al-Wahaibi et al., 2024; cited from earlier work
E. coli [10] = test system: E. coli; set-up: method as in Al-Wahaibi et al., 2024; conditions: ref Al-Wahaibi et al., 2024; cited from earlier work
S. aureus [11] = test system: S. aureus; set-up: method as in Al-Wahaibi et al., 2024; conditions: ref Al-Wahaibi et al., 2024; cited from earlier work
Topoisomerase IV = conditions: earlier work; ref Al-Wahaibi et al., 2024; cited from earlier work
P. aeruginosa [12] = test system: P. aeruginosa; set-up: method as in Al-Wahaibi et al., 2024; conditions: ref Al-Wahaibi et al., 2024; cited from earlier work
[13] = test system: A. flavus and C. albicans; assay: Disk diffusion inhibition zone, both fungi; type: cell-based; conditions: against A. flavus and C. albicans
Description: as §8

S. aureus [14] = assay: Modified disk diffusion, inhibition zone; type: cell-based, Staphylococcus aureus; conditions: S. aureus (G+)
Description: as §6, §7

E. coli [15] = assay: Modified disk diffusion, inhibition zone; type: cell-based, Escherichia coli; conditions: E. coli (G−)
Description: as §6, §7

C. albicans [16] = assay: Antifungal assay (MIC/MFC), twofold serial dilution
B. subtilis [17] = assay: Modified disk diffusion, inhibition zone; type: cell-based, Bacillus subtilis; conditions: B. subtilis (G+)
Description: as §6, §7

P. aeruginosa [18] = assay: Modified disk diffusion, inhibition zone; type: cell-based, Pseudomonas aeruginosa; conditions: P. aeruginosa (G−)
Description: as §6, §7

A. flavus [19] = assay: Antifungal assay (MIC/MFC), twofold serial dilution; conditions: for MIC: A. flavus

Structure (SMILES): CO[C@@H]1[C@@H](OC(N)=O)[C@@H](O)[C@H](Oc2ccc3c(O)c(NC(=O)c4ccc(O)c(CC=C(C)C)c4)c(=O)oc3c2C)OC1(C)C [Novobiocin]
- IC50 [1]: 26.7 µM

Structure (SMILES): O=C(O)c1cn(C2CC2)c2cc(N3CCNCC3)c(F)cc2c1=O [Ciprofloxacin, reference compound]
- MBC (E. coli [2]): 90 ± 6 nM (≈ 0.0298 µg/mL)
- MBC (E. coli [2]; Escherichia coli, read-out: MBC): 90 nM (≈ 0.0298 µg/mL)
- MIC (E. coli [2]; Escherichia coli, read-out: MIC): 0.06 ± 0.004 µM (≈ 0.0199 µg/mL)
- Inhibition zone (IZ) diameter (A. flavus [3]): NA (NA: no activity (8 mm))
- Inhibition zones (IZ) [4]: 40 mm
- MBC (B. subtilis [5]): 19 ± 1 nM (≈ 0.0063 µg/mL)
- MIC (B. subtilis [5]): 10 ± 1 nM (≈ 0.00331 µg/mL)
- MBC (B. subtilis [5]; Bacillus subtilis, read-out: MBC): 19 nM (≈ 0.0063 µg/mL)
- MIC (B. subtilis [5]; Bacillus subtilis, read-out: MIC): 10 nM (≈ 0.00331 µg/mL)
- Inhibition zone (IZ) diameter (C. albicans [6]): NA (NA: no activity (8 mm))
- MBC (P. aeruginosa [7]): 90 ± 6 nM (≈ 0.0298 µg/mL)
- MBC (P. aeruginosa [7]; Pseudomonas aeruginosa, read-out: MBC): 90 nM (≈ 0.0298 µg/mL)
- MIC (P. aeruginosa [7]; Pseudomonas aeruginosa, read-out: MIC): 0.06 ± 0.005 µM (≈ 0.0199 µg/mL)
- MBC (S. aureus [8]): 45 ± 2 nM (≈ 0.0149 µg/mL)
- MIC (S. aureus [8]): 30 ± 2 nM (≈ 0.00994 µg/mL)
- MBC (S. aureus [8]; Staphylococcus aureus, read-out: MBC): 45 nM (≈ 0.0149 µg/mL)
- MIC (S. aureus [8]; Staphylococcus aureus, read-out: MIC): 30 nM (≈ 0.00994 µg/mL)

Structure (SMILES): COc1ccccc1/C=N/NC(=O)c1cc(Cc2ccc(O)c(C(=O)N/N=C/c3ccccc3OC)c2)ccc1O [Compound 5h]
- MIC (B. subtilis [9]): 0.050 µg/mL (≈ 0.0905 µM)
- Times less potent/effective than ciprofloxacin (MIC) (B. subtilis [9]): five times less potent than ciprofloxacin
- MIC (E. coli [10]): 0.065 µg/mL (≈ 0.118 µM)
- MIC (S. aureus [11]): 0.030 µg/mL (≈ 0.0543 µM)
- IC50 (Topoisomerase IV): 3.5 µM
- MIC (P. aeruginosa [12]): 0.060 µg/mL (≈ 0.109 µM)

Structure (SMILES): CN(C)c1ccc(/C=N/NC(=O)c2cc(Cc3ccc(O)c(C(=O)N/N=C/c4ccc(N(C)C)cc4)c3)ccc2O)cc1 [Compound 5i]
- Times less potent/effective than ciprofloxacin (MIC) (B. subtilis [9]): 7 times
- IC50 (Topoisomerase IV): 5.8 µM

Structure (SMILES): OC(Cn1cncn1)(Cn1cncn1)c1ccc(F)cc1F [Fluconazole, reference compound]
- IZ values [13]: 40 mm
- Inhibition zone (IZ) diameter (S. aureus [14]): NA (NA: no activity (8 mm))
- Inhibition zone (IZ) diameter (E. coli [15]): NA (NA: no activity (8 mm))
- MIC (C. albicans [16]; C. albicans): 17.50 ± 1 µM (≈ 5.36 µg/mL)
- MFC (C. albicans [16]; Candida albicans): 35 ± 2 µM (≈ 10.7 µg/mL)
- MIC (C. albicans [16]; Candida albicans): 17.5 µM (≈ 5.36 µg/mL)
- Inhibition zone (IZ) diameter (B. subtilis [17]): NA (NA: no activity (8 mm))
- Inhibition zone (IZ) diameter (P. aeruginosa [18]): NA (NA: no activity (8 mm))
- MIC (A. flavus [19]): 11.50 ± 1 µM (≈ 3.52 µg/mL)
- MFC (A. flavus [19]; Aspergillus flavus): 22.8 ± 1 µM (≈ 6.98 µg/mL)
- MIC (A. flavus [19]; Aspergillus flavus): 11.5 µM (≈ 3.52 µg/mL)
